Results reported in PubChem BioAssay (NCI).
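Abbreviation: GI50, concentration required for 50% inhibition of growth. At the TGI there is no net growth.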

Tests used:
Assay in all cases: NCI tumour cell line growth inhibition, 384-well format
[1] = system: KM12 colon
[2] = system: SF-295 CNS
[3] = system: UO-31 renal
[4] = system: A498 renal
[5] = system: MDA-MB-435 melanoma
[6] = system: NCI-H322M lung
[7] = system: PC-3 prostate
[8] = system: SR leukemia
[9] = system: SNB-19 CNS
[10] = system: HT29 colon
[11] = system: HCC-2998 colon
[12] = system: BT-549 breast
[13] = system: UACC-257 melanoma
[14] = system: OVCAR-4 ovarian
[15] = system: ACHN renal
[16] = system: SK-MEL-2 melanoma
[17] = system: COLO 205 colon
[18] = system: SF-539 CNS
[19] = system: NCI-H23 lung
[20] = system: SK-OV-3 ovarian
[21] = system: UACC-62 melanoma
[22] = system: K-562 leukemia
[23] = system: NCI-H226 lung
[24] = system: MCF7 breast
[25] = system: SN12C renal
[26] = system: HCT-15 colon
[27] = system: SK-MEL-5 melanoma
[28] = system: RPMI-8226 leukemia
[29] = system: NCI-H460 NSCLC
[30] = system: MDA-MB-231 breast
[31] = system: OVCAR-3 ovarian
[32] = system: NCI/ADR-RES ovarian
[33] = system: MOLT-4 leukemia
[34] = system: TK-10 renal
[35] = system: HL-60(TB) leukemia
[36] = system: SK-MEL-28 melanoma
[37] = system: MALME-3M melanoma
[38] = system: OVCAR-5 ovarian
[39] = system: SW-620 colon
[40] = system: DU-145 prostate
[41] = system: NCI-H522 lung
[42] = system: LOX IMVI melanoma
[43] = system: HOP-62 NSCLC
[44] = system: M14 melanoma
[45] = system: OVCAR-8 ovarian
[46] = system: T-47D breast
[47] = system: A549 NSCLC
[48] = system: U251 glioblastoma
[49] = system: 786-0 renal
[50] = system: MDA-MB-468 breast
[51] = system: IGROV1 ovarian
[52] = system: SF-268 CNS
[53] = system: HCT-116 colon
[54] = system: HOP-92 NSCLC
[55] = system: CCRF-CEM leukemia
[56] = system: RXF 393 renal
[57] = system: CAKI-1 renal

## CCN(c1cc(C#CCN2CCOCC2)cc(C(=O)NCc2c(C)cc(C)[nH]c2=O)c1C)C1CCC(N(C)CCOC)CC1 (centres undefined)
[1]
  GI50: > 100 µM
  TGI: > 100 µM
[2]
  GI50: > 100 µM
  TGI: > 100 µM
[3]
  GI50: > 100 µM
  TGI: > 100 µM
[4]
  GI50: 91.1 µM
  TGI: > 100 µM
[5]
  GI50: > 100 µM
  TGI: > 100 µM
[6]
  GI50: > 100 µM
  TGI: > 100 µM
[7]
  GI50: > 100 µM
  TGI: > 100 µM
[8]
  GI50: 82.8 µM
  TGI: > 100 µM
[9]
  GI50: > 100 µM
  TGI: > 100 µM
[10]
  GI50: > 100 µM
  TGI: > 100 µM
[11]
  GI50: 8.42 µM
  TGI: 92.5 µM
[12]
  GI50: > 100 µM
  TGI: > 100 µM
[13]
  GI50: > 100 µM
  TGI: > 100 µM
[14]
  GI50: 51.4 µM
  TGI: > 100 µM
[15]
  GI50: > 100 µM
  TGI: > 100 µM
[16]
  GI50: 72.9 µM
  TGI: > 100 µM
[17]
  GI50: > 100 µM
  TGI: > 100 µM
[18]
  GI50: > 100 µM
  TGI: > 100 µM
[19]
  GI50: > 100 µM
  TGI: > 100 µM
[20]
  GI50: > 100 µM
  TGI: > 100 µM
[21]
  GI50: 51.3 µM
  TGI: > 100 µM
[22]
  GI50: > 100 µM
  TGI: > 100 µM
[23]
  GI50: 55.9 µM
  TGI: > 100 µM
[24]
  GI50: > 100 µM
  TGI: > 100 µM
[25]
  GI50: > 100 µM
  TGI: > 100 µM
[26]
  GI50: > 100 µM
  TGI: > 100 µM
[27]
  GI50: > 100 µM
  TGI: > 100 µM
[28]
  GI50: 0.0254 µM
  TGI: 0.193 µM
[29]
  GI50: > 100 µM
  TGI: > 100 µM
[30]
  GI50: 24.1 µM
  TGI: > 100 µM
[31]
  GI50: 40.6 µM
  TGI: > 100 µM
[32]
  GI50: > 100 µM
  TGI: > 100 µM
[33]
  GI50: 1.45 µM
  TGI: 3.55 µM
[34]
  GI50: > 100 µM
  TGI: > 100 µM
[35]
  GI50: > 100 µM
  TGI: > 100 µM
[36]
  GI50: > 100 µM
  TGI: > 100 µM
[37]
  GI50: > 100 µM
  TGI: > 100 µM
[38]
  GI50: > 100 µM
  TGI: > 100 µM
[39]
  GI50: > 100 µM
  TGI: > 100 µM
[40]
  GI50: > 100 µM
  TGI: > 100 µM
[41]
  GI50: 32.8 µM
  TGI: > 100 µM
[42]
  GI50: > 100 µM
  TGI: > 100 µM
[43]
  GI50: 67.2 µM
  TGI: > 100 µM
[44]
  GI50: > 100 µM
  TGI: > 100 µM
[45]
  GI50: > 100 µM
  TGI: > 100 µM
[46]
  GI50: > 100 µM
  TGI: > 100 µM
[47]
  GI50: > 100 µM
  TGI: > 100 µM
[48]
  GI50: > 100 µM
  TGI: > 100 µM
[49]
  GI50: > 100 µM
  TGI: > 100 µM
[50]
  GI50: 58.4 µM
  TGI: > 100 µM
[51]
  GI50: > 100 µM
  TGI: > 100 µM
[52]
  GI50: > 100 µM
  TGI: > 100 µM
[53]
  GI50: > 100 µM
  TGI: > 100 µM
[54]
  GI50: 2.55 µM
  TGI: 34.7 µM
[55]
  GI50: 4.63 µM
  TGI: 21.4 µM
[56]
  GI50: 3.37 µM
  TGI: > 100 µM
[57]
  GI50: > 100 µM
  TGI: > 100 µM
